Test results: US20100273804A1, “PYRIDAZINE DERIVATIVES USEFUL AS FUNGICIDES AND FOR THE TREATMENT OF CANCER” (SYNGENTA CROP PROTECTION, INC., priority 2007, published 2010)

What was measured:
Alternaria solani = assay: Alternaria solani/tomato/preventive (action against Alternaria on tomato); format: in vivo; conditions: 96 h, tomato plants cv. Roter Gnom, preventive spray, assessed 4 days after inoculation, read-out: inhibit fungal infestation
Procedure: Alternaria solani/Tomato/Preventive (Action Against Alternaria on Tomato) 4 weeks old tomato plants cv. Roter Gnom are treated with the formulated test compound in a spray chamber. Two days after application tomato plants are inoculated by spraying a spore suspension on the test plants. After an incubation period of 4 days at 22° C./18° C. and 95% r.h. in a greenhouse the disease incidence is assessed.

Puccinia recondita = assay: Puccinia recondita/wheat/preventive (action against brown rust on wheat); format: in vivo; conditions: 264 h, wheat plants cv. Arina, preventive spray, assessed 11 days after inoculation, read-out: inhibit fungal infestation
Procedure: Puccinia recondita/Wheat/Preventive (Action Against Brown Rust on Wheat) 1 week old wheat plants cv. Arina are treated with the formulated test compound in a spray chamber. One day after application wheat plants are inoculated by spraying a spore suspension ([…] uredospores/ml) on the test plants. After an incubation period of 1 day at 20° C. and 95% r.h. plants are kept for 10 days 20° C./18° C. (day/night) and 60% r.h. in a greenhouse. The disease incidence is assessed 11 days after inoculation.

[1] = tested on: Maqnaporthe qrisea (Pyricularia oryzae); assay: whole plant or invertebrate; format: in vivo; conditions: 144 h, read-out: inhibit fungal infestation
[2] = tested on: Pyrenophora teres (Helminthosporium teres); assay: Pyrenophora teres (Helminthosporium teres)/barley/preventive (action against net blotch on barley); format: in vivo; conditions: 96 h, barley plants cv. Regina, preventive spray, assessed 4 days after inoculation, read-out: inhibit fungal infestation
Procedure: Pyrenophora teres (Helminthosporium teres)/Barley/Preventive (Action Against Net Blotch on Barley) 1-week-old barley plants cv. Regina are treated with the formulated test compound in a spray chamber. Two days after application barley plants are inoculated by spraying a spore suspension (2.6×10^4 conidia/ml) on the test plants. After an incubation period of 4 days at 20° C. and 95% r.h. the disease incidence is assessed.

Septoria tritici = assay: Septoria tritici/wheat/preventive (action against Septoria leaf spot on wheat); format: in vivo; conditions: Zymoseptoria tritici, wheat plants cv. Riband, preventive spray, assessed 16-18 days after inoculation, read-out: inhibits fungal infestation
Procedure: Septoria tritici/Wheat/Preventive (Action Against Septoria Leaf Spot on Wheat) 2 weeks old wheat plants cv. Riband are treated with the formulated test compound in a spray chamber. One day after application wheat plants are inoculated by spraying a spore suspension (10^6 conidia/ml) on the test plants. After an incubation period of 1 day at 22° C./21° C. and 95% r.h. plants are kept at 22° C./21° C. and 70% r.h. in a greenhouse. The disease incidence is assessed 16-18 days after inoculation.

Uncinula necator = assay: Uncinula necator/grape/preventive (action against powdery mildew on grape); format: in vivo; conditions: Erysiphe necator, 168 h, grape seedlings cv. Gutedel, preventive spray, assessed 7 days after inoculation, read-out: inhibit fungal infestation
Procedure: Uncinula necator/Grape/Preventive (Action Against Powdery Mildew on Grape) 5 weeks old grape seedlings cv. Gutedel are treated with the formulated test compound in a spray chamber. One day after application grape plants are inoculated by shaking plants infected with grape powdery mildew above the test plants. After an incubation period of 7 days at 24° C./22° C. and 70% r.h. under a light regime of 14/10 h (light/dark) the disease incidence is assessed.

Botrytis cinerea = assay: Botrytis cinerea/tomato/preventive (action against Botrytis on tomato); format: in vivo; conditions: 72 h, tomato plants cv. Roter Gnom, preventive spray, assessed 3 days after inoculation, read-out: inhibit fungal infestation
Procedure: Botrytis cinerea/tomato/preventive (Action against Botrytis on tomato) 4 weeks old tomato plants cv. Roter Gnom are treated with the formulated test compound in a spray chamber. Two days after application tomato plants are inoculated by spraying a spore suspension on the test plants. After an incubation period of 3 days at 20° C. and 95% r. h. in a greenhouse the disease incidence is assessed.

Structure (SMILES): Cc1n[nH]c(=O)c(-c2c(F)cc(F)cc2F)c1Cc1ccc(Cl)cc1 [I.k.157, 5-(4-chloro-benzyl)-6-methyl-4-(2,4,6-trifluoro-phenyl)-2H-pyridazin-3-one]
- melting point: 212 to 215 °C

Structure (SMILES): Cc1nnc(Cl)c(-c2c(F)cc(F)cc2F)c1Cc1ccc(Cl)cc1 [I.k.158, 3-chloro-5-(4-chloro-benzyl)-6-methyl-4-(2,4,6-trifluoro-phenyl)-pyridazine]
- inhibition at 200 ppm (Alternaria solani): ≥ 80%
- inhibition at 200 ppm (Puccinia recondita): ≥ 80%
- inhibition at 200 ppm [1]: ≥ 80%
- inhibition at 200 ppm [2]: ≥ 80%
- inhibition at 200 ppm (Septoria tritici): ≥ 80%
- inhibition at 200 ppm (Uncinula necator): ≥ 80%
- inhibition at 200 ppm (Botrytis cinerea): ≥ 80%
